Measurements from patent US10457681B2, “Toll-like receptor 7 (TLR7) agonists having a tricyclic moiety, conjugates thereof, and methods and uses therefor” (BRISTOL-MYERS SQUIBB COMPANY, priority 2017, dated 2019).

Legend:
human TLR7 = human TLR7 (Homo sapiens (Human), UniProt Q9NYK1); assay: HEK-Blue TLR7 reporter assay (TLR7 agonist activity); type: cell-based; details: HEK-Blue TLR7 cells, SEAP reporter, 18 h treatment; read-out: TLR7 Agonism (EC50)
Procedure: This example describes a method for assaying TLR7 agonist activity of the compounds disclosed in this specification.
HEK-Blue™ TLR7 cells were added to each well of a 384-well tissue-culture plate (15,000 cells per well) and incubated 16-18 h at 37° C., 5% CO2. Compounds (100 nl) were dispensed into wells containing the HEK-Blue™ TLR cells and the treated cells were incubated at 37° C., 5% CO2. After 18 h treatment ten microliters of freshly-prepared Quanti-Blue™ reagent (Invivogen) was added to each well, incubated for 30 min (37° C., 5% CO2) and SEAP levels measured using an Envision plate reader (OD=620 nm).

interleukin 6 (IL-6) = assay: Interleukin 6 induction assay in human whole blood; type: cell-based; details: 37° C., 20 h, AlphaLISA
Procedure: This example describes a method for assaying interleukin 6 induction by compounds disclosed in this specification.
Compounds diluted in DMSO were transferred to individual wells of a Matrix Technologies clear, V-bottom 384-well plate using ECHO acoustic liquid handling technology (25 nL per well). Human whole-blood samples (25 uL) were added to each well using a CyBio FeliX liquid handling instrument. The plate was shaken on a plate shaker for three min before incu-bating the reaction mixtures at 37° C. for 20 h. Basel RPMI 1640 medium (supplemented with L-glutamine) was then added to each well (25 uL per well) prior to liberating plasma from each sample by centrifugation (450×g, 5 min, ambient temperature). Treated plasma samples (3 uL) were subsequently transferred to individual wells of a white, shallow, 384-well ProxiPlate (Perkin Elmer) using the FeliX liquid handling instrument and their interleukin 6 levels were measured using AlphaLISA technology as described by the manufacturer, PerkinElmer. Data analyses software was used to determine compound EC50 values where the baseline was established using average DMSO values and 100% induction established using reference compound values at the highest concentration tested. EC50's can be determined with software such as Graphpad Prism™.

IFN-α = details: fold lower potency vs corresponding purine-8-one compound; cited from earlier work

human TLR7, sequence (Q9NYK1 27-1049): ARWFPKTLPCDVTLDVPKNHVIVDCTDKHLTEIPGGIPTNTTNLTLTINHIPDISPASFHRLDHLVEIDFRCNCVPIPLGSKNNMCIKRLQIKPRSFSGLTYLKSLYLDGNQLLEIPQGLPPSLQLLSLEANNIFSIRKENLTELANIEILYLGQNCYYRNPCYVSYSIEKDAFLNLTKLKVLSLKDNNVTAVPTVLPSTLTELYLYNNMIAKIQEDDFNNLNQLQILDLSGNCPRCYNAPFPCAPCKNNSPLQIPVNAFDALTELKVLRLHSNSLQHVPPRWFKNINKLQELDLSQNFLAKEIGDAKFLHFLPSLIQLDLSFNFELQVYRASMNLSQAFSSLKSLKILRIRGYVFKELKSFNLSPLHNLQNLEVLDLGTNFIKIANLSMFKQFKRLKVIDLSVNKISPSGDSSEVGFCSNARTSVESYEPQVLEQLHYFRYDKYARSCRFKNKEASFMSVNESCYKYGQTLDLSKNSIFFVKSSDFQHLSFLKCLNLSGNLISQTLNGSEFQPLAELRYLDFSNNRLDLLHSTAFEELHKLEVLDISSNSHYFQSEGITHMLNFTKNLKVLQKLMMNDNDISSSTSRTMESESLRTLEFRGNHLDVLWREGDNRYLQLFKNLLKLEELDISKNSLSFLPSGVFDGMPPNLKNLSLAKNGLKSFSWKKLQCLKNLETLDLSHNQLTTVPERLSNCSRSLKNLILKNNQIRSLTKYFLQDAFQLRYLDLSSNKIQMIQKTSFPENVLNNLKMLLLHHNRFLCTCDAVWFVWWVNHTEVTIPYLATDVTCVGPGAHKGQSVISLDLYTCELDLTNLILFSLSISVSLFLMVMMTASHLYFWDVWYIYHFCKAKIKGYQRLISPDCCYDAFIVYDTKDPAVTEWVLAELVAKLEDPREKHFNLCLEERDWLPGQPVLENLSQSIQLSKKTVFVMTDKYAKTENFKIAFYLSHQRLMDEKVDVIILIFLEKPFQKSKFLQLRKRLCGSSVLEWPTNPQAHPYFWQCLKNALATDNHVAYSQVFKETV

| SMILES | EC50 (human TLR7) | EC50 (interleukin 6 (IL-6)) | potency less than that of the corresponding purine-8-one compound, as measured by IFN-α induction (IFN-α) |
| --- | --- | --- | --- |
| CCCCOc1nc(N)c2nc(O)n(Cc3ccc4c(c3)Sc3cc(CNCc5ccccc5)ccc3N4C)c2n1 [Ia-03] | 0.0085 µM | 0.0144 µM | – |
| CCCCOc1nc(N)c2nc(O)n(Cc3ccc4c(c3)Sc3cc(CNC5CCC5)ccc3N4C)c2n1 [Ia-06] | 0.093 µM | 0.75 µM | – |
| CCCCOc1nc(N)c2c(n1)N(Cc1cccc(CN3CCCC3)c1)CC(=O)N2 [Vesatolimod, vesatolimod, reference compound] | 1.2 µM | – | 100 × |
| CCCCOc1nc(N)c2nc(O)n(Cc3ccc4c(c3)Sc3cc(CO)ccc3N4C)c2n1 [Ia-01] | 0.05 µM | 0.25 µM | – |
| CCCCOc1nc(N)c2nc(O)n(Cc3ccc4c(c3)Sc3cc(CNCc5ccncc5)ccc3N4C)c2n1 [Ia-07] | 0.0079 µM | – | – |
| CCCCOc1nc(N)c2nc(O)n(Cc3ccc4c(c3)Sc3cc(CNC(C)C)ccc3N4C)c2n1 [Ia-02] | 0.0047 µM | 0.0049 µM | – |
| CCCCOc1nc(N)c2nc(O)n(Cc3ccc4c(c3)Sc3cc(CNC5COC5)ccc3N4C)c2n1 [Ia-05] | 0.58 µM | – | – |
| CCCCOc1nc(N)c2nc(O)n(Cc3ccc4c(c3)Sc3cc(CNC)ccc3N4C)c2n1 [Ia-04] | 0.039 µM | 0.048 µM | – |
| CCCCOc1nc(N)c2nc(O)n(Cc3ccccc3)c2n1 [Compound B, reference compound] | 0.474 µM | – | – |
